Experimental data from ChEMBL document CHEMBL4428135, “Varying Chirality Across Nicotinic Acetylcholine Receptor Subtypes: Selective Binding of Quinuclidine Triazole Compounds” (ACS Med Chem Lett, 2016).
Activity calls are given as the source filed them. The rule behind the calls is not given here.

Legend:
[1] = target: T1, Neuronal acetylcholine receptor; alpha3/beta4 (Homo sapiens, UniProt P30926+P32297); experiment: Agonist activity at human alpha3beta4 nAChR expressed in HEK293 cells assessed as increase in intracellular calcium levels at 10 uM; type: cell-based
[2] = target: T1, Neuronal acetylcholine receptor; alpha3/beta4; experiment: Displacement of [3H]epibatidine from human alpha3beta4 nAChR transfected in HEK293 cell membranes after 120 mins by liquid scintillation counting
[3] = target: T2, Neuronal acetylcholine receptor subunit alpha-7 (Homo sapiens, UniProt P36544); experiment: Displacement of [3H]MLA from human alpha7 nAChR transfected in human SH-SY5Y cell membranes after 120 mins by liquid scintillation counting
[4] = target: T3, Neuronal acetylcholine receptor; alpha4/beta2 (Homo sapiens, UniProt P17787+P43681); experiment: Displacement of [3H]epibatidine from human alpha4beta2 nAChR transfected in HEK293 cell membranes after 120 mins by liquid scintillation counting
[5] = target: Acetylcholine receptor subunit alpha (Homo sapiens) (UniProt P02708); experiment: Displacement of [125I]alpha-bungarotoxin from human N-muscle type nAChR alpha1 expressed in human RD cells at 1 uM; type: cell-based
[6] = target: T2, Neuronal acetylcholine receptor subunit alpha-7; experiment: Agonist activity at human alpha7 nAChR expressed in human SH-SY5Y cells assessed as increase in intracellular calcium levels at 10 uM; type: cell-based
Homo sapiens [7] = species: Homo sapiens; experiment: Selectivity index, reciprocal of ratio of Ki for human alpha3beta4 nAChR transfected in HEK293 cells to Ki for human alpha4beta2 nAChR transfected in HEK293 cells; type: cell-based
[8] = target: Serotonin 3 (5-HT3) receptor (Homo sapiens) (UniProt P46098+A5X5Y0+O95264+Q70Z44+Q8WXA8); experiment: Displacement of [3H]BRL-43694 from human recombinant 5-HT3 receptor expressed in CHO cells at 100 nM; type: cell-based
Homo sapiens [9] = species: Homo sapiens; experiment: Selectivity index, reciprocal of ratio of Ki for alpha7 nAChR transfected in human SH-SY5Y cells to KI for human alpha4beta2 nAChR transfected in HEK293 cells; type: cell-based
Homo sapiens [10] = species: Homo sapiens; experiment: Selectivity index, reciprocal of ratio of Ki for human alpha7 nAChR transfected in human SH-SY5Y cells to Ki for human alpha3beta4 nAChR transfected in HEK293 cells; type: cell-based
[11] = target: Neuronal acetylcholine receptor subunit alpha-7 (Rattus norvegicus, UniProt Q05941); experiment: Displacement of [3H]MLA from alpha7 nAChR in rat brain membranes after 2 hrs; type: cell membranes
[12] = target: T1, Neuronal acetylcholine receptor; alpha3/beta4; experiment: Antagonist activity at human alpha3beta4 nAChR expressed in HEK293 cells assessed as rediution in epibatidine-induced intracellular calcium levels at 10 uM; type: cell-based
[13] = target: T2, Neuronal acetylcholine receptor subunit alpha-7; experiment: Binding affinity to alpha7 nAChR (unknown origin)
[14] = target: T3, Neuronal acetylcholine receptor; alpha4/beta2; experiment: Binding affinity to alpha4beta2 nAChR (unknown origin); type: protein-complex assay
[15] = target: T2, Neuronal acetylcholine receptor subunit alpha-7; experiment: Displacement of [3H] epibatidine from alpha7 nAChR (unknown origin) expressed in HEK293 cells; type: cell-based
[16] = target: T3, Neuronal acetylcholine receptor; alpha4/beta2; experiment: Displacement of [3H] epibatidine from alpha4beta2 nAChR (unknown origin) expressed in HEK293 cells; type: cell-based
[17] = target: T1, Neuronal acetylcholine receptor; alpha3/beta4; experiment: Displacement of [3H] epibatidine from alpha3beta4 nAChR (unknown origin) expressed in HEK293 cells; type: cell-based
[18] = target: Neuronal acetylcholine receptor; alpha4/beta2 (Rattus norvegicus, UniProt P09483+P12390); experiment: Displacement of [3H]cytisine from alpha4beta2 nAChR in Sprague-Dawley rat brain membranes after 75 mins by scintillation counting; type: cell membranes
[19] = target: T2, Neuronal acetylcholine receptor subunit alpha-7; experiment: Displacement of [3H]A-585539 from alpha7 nAChR in human cerebral cortex membranes after 75 mins by scintillation counting; type: cell membranes
[20] = target: T2, Neuronal acetylcholine receptor subunit alpha-7; experiment: Displacement of [3H]MLA from human recombinant alpha7 nAChR expressed in HEKtsA201 cells after 1 hr by CNiFERs binding assay; type: cell-based
[21] = target: T3, Neuronal acetylcholine receptor; alpha4/beta2; experiment: Displacement of [3H]-(+/-)-epibatidine from human recombinant alpha4beta2 nAChR expressed in HEKtsA201 cells after 1 hr by CNiFERs binding assay; type: cell-based

T2 sequence (P36544 whole entry): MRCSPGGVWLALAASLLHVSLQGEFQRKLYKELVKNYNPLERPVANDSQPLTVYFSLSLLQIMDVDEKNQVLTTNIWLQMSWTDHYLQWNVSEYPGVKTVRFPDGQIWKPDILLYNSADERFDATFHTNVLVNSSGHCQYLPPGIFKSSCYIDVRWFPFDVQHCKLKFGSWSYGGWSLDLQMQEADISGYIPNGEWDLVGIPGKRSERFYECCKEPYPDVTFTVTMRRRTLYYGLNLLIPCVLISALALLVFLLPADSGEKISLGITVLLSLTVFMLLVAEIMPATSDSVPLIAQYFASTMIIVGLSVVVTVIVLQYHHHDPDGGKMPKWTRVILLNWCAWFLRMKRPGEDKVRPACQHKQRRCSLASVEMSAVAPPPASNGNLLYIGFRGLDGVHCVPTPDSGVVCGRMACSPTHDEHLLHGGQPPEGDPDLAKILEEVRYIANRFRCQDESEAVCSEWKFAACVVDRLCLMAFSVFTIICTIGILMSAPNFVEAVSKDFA
Chain of Acetylcholine receptor subunit alpha (Homo sapiens) (P02708 whole entry): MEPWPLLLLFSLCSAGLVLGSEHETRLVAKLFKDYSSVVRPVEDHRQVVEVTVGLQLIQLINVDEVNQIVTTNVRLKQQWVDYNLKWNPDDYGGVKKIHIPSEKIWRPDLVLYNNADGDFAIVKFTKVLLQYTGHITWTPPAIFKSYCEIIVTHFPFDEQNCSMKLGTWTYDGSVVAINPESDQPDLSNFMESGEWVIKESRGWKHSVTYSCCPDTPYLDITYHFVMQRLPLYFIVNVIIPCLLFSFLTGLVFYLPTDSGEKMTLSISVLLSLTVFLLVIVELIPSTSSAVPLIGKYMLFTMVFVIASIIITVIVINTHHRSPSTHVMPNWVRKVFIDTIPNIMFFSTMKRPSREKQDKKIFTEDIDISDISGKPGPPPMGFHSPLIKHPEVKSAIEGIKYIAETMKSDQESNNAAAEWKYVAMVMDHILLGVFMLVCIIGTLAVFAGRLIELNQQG
T3 sequence (P17787 whole entry): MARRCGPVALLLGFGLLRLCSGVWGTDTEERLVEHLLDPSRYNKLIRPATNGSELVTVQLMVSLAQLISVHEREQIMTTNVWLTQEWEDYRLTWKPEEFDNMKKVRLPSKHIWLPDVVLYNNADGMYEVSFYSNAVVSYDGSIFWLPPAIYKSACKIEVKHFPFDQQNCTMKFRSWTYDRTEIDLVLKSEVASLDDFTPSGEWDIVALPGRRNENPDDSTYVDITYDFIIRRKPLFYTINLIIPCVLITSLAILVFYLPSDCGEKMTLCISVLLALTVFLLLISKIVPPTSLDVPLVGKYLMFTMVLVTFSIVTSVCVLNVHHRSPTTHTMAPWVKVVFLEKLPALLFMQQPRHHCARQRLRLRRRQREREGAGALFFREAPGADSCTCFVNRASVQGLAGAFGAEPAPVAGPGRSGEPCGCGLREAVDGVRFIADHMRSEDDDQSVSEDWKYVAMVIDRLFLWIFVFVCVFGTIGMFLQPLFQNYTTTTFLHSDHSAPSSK
T3 sequence (P43681 whole entry): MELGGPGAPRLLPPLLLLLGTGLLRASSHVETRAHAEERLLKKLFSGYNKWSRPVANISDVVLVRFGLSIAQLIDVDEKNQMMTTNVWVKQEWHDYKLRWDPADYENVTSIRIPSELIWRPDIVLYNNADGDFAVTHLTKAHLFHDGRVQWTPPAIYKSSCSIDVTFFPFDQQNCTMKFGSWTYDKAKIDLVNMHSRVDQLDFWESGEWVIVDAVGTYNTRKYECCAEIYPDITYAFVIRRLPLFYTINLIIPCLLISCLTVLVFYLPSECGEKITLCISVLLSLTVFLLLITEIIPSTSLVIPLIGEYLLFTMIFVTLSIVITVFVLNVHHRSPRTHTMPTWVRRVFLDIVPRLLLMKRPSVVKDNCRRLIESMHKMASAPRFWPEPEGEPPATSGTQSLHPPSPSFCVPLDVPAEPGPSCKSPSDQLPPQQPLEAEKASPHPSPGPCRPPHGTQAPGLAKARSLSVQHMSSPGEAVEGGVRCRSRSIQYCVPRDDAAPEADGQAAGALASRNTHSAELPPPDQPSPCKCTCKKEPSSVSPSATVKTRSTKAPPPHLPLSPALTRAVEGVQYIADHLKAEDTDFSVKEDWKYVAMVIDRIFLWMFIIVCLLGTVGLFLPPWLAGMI
T1 sequence (P30926 whole entry): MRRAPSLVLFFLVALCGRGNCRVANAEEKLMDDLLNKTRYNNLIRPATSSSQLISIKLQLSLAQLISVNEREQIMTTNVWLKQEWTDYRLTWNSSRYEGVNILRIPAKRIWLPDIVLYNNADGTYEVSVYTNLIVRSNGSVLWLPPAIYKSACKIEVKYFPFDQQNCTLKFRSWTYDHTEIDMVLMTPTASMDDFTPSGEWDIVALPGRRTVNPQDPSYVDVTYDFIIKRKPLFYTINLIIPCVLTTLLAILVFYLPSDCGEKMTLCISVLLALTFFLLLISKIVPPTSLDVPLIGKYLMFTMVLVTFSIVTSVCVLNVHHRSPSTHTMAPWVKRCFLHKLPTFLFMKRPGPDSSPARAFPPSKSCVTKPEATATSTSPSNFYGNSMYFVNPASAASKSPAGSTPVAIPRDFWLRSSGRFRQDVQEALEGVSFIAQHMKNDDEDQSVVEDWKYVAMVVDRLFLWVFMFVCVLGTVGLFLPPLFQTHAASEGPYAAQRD
T1 sequence (P32297 whole entry): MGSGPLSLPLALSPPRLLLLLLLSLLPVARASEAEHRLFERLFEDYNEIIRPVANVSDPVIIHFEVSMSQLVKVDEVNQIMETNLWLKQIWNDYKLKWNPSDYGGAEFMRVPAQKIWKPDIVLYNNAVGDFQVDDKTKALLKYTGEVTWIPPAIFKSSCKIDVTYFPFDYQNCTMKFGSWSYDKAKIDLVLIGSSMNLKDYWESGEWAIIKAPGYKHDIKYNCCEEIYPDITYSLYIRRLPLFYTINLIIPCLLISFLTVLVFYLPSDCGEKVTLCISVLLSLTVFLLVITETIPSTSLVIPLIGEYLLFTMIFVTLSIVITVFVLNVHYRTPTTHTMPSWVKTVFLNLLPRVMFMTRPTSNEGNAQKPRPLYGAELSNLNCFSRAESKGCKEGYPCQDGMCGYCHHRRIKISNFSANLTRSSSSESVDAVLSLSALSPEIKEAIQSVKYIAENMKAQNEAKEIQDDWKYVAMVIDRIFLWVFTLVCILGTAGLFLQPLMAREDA
Chain of Neuronal acetylcholine receptor; alpha4/beta2 (Rattus norvegicus, UniProt P09483+P12390) (P09483 whole entry): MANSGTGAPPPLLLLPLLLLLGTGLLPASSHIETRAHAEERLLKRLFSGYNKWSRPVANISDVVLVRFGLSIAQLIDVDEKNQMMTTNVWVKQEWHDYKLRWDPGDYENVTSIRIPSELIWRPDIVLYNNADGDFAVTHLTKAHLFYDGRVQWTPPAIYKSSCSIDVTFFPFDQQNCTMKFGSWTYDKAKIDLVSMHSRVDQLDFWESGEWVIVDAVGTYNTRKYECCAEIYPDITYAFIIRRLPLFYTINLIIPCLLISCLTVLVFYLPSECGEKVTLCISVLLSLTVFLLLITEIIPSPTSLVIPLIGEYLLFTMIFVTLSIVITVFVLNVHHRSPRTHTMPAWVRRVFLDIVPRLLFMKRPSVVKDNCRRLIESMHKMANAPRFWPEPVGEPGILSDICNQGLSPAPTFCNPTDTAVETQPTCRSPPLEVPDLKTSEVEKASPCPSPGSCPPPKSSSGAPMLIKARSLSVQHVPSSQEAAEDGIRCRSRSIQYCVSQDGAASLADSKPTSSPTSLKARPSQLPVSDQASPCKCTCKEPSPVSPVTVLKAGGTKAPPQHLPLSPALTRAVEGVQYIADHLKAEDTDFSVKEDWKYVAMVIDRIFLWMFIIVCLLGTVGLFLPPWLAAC
Chain of Neuronal acetylcholine receptor; alpha4/beta2 (Rattus norvegicus, UniProt P09483+P12390) (P12390 whole entry): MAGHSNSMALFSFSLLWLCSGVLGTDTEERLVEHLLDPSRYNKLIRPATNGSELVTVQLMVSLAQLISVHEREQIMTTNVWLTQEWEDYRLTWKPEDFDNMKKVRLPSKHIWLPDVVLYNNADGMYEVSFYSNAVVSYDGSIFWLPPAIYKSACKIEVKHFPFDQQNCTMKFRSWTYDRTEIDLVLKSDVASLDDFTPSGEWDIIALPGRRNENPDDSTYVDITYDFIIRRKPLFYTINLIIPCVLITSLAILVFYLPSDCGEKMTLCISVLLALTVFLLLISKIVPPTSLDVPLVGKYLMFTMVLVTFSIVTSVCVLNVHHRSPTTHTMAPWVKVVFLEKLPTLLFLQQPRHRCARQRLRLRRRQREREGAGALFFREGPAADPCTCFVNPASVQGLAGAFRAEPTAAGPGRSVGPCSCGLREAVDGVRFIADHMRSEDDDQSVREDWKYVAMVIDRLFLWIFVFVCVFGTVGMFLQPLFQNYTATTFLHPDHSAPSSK
Chain of Neuronal acetylcholine receptor subunit alpha-7 (Rattus norvegicus, UniProt Q05941) (Q05941 whole entry): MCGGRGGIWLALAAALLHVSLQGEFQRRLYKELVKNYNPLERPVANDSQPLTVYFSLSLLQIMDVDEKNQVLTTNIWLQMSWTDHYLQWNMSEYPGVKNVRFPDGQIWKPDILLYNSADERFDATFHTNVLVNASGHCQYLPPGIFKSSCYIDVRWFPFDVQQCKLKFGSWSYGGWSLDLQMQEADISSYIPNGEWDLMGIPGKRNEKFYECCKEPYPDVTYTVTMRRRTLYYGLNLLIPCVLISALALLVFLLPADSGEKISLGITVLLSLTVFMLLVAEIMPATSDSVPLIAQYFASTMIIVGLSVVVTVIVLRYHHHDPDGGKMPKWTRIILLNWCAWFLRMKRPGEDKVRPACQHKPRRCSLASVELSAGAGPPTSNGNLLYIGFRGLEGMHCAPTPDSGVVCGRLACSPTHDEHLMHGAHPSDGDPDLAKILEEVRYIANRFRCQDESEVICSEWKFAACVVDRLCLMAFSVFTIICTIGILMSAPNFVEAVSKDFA

With `Fc1ccc(-c2cn([C@@H]3CN4CCC3CC4)nn2)cc1` the Activity [1] was “Active”, the Ki [2] was 3.09 nM and the Ki [3] was 175 nM. The Ki [4] was 515 nM, the inhibition [5] was 2 to 12% and the Activity [6] was “Active”. For the same molecule, the Ratio (Homo sapiens [7]) was 167, the inhibition [8] was “inactive” and the Ratio (Homo sapiens [9]) was 3.

In the case of `Fc1cccc(-c2cn([C@H]3CN4CCC3CC4)nn2)c1`, the Activity [1] is reported as “Active”, the Ki [2] is reported as 362 nM and the Ki [3] is reported as 117 nM. The Ki [4] was 5200 nM, the Activity [6] was “Active” and the Ratio (Homo sapiens [7]) was 14. It also gave a Ratio (Homo sapiens [10]) of 3.1 and a Ratio (Homo sapiens [9]) of 44.

Molecule `Oc1ccc(-c2cn([C@H]3CN4CCC3CC4)nn2)cc1` has a Ki [2] of 138 nM, a Ki [3] of 10.9 nM and a Ki [4] of 7390 nM. For the same molecule, the Ratio (Homo sapiens [7]) was 54, the Ratio (Homo sapiens [10]) was 12.7 and the Ratio (Homo sapiens [9]) was 678.

`O=C(N[C@H]1CN2CCC1CC2)c1c[nH]c2ccccc12` gave a Ki [11] of 6 nM.

In the case of `Fc1cccc(-c2cn([C@@H]3CN4CCC3CC4)nn2)c1`, the Ki [2] is reported as 2.25 nM, the Ki [3] is reported as 660 nM and the Ki [4] is reported as 519 nM. The inhibition [5] was 2 to 12%, the Activity [6] was “Active” and the Ratio (Homo sapiens [7]) was 231. For the same molecule, the inhibition [8] was “inactive” and the inhibition [12] was “Active”.

For `Fc1ccc(COc2cccc(-c3cn([C@H]4CN5CCC4CC5)nn3)c2)cc1`, the Ki [2] was 1090 nM, the Ki [3] was 33.2 nM and the Ki [4] was 6390 nM. The Ratio (Homo sapiens [7]) was 5.9, the Ratio (Homo sapiens [10]) was 33 and the Ratio (Homo sapiens [9]) was 193.

`FCCCOc1cccc(-c2cn([C@@H]3CN4CCC3CC4)nn2)c1` was tested, and the Ki [2] was 19.5 nM, the Ki [3] was 96.9 nM and the Ki [4] was 1980 nM. The Ratio (Homo sapiens [7]) was 102 and the Ratio (Homo sapiens [9]) was 20.

`FCCCOc1cccc(-c2cn([C@H]3CN4CCC3CC4)nn2)c1` showed a Ki [2] of 1630 nM, a Ki [3] of 62.3 nM and a Ki [4] of 9010 nM. It also gave a Ratio (Homo sapiens [7]) of 5.5, a Ratio (Homo sapiens [10]) of 26 and a Ratio (Homo sapiens [9]) of 145.

In the case of `c1ccc(COc2cccc(-c3cn([C@H]4CN5CCC4CC5)nn3)c2)cc1`, the Ki [2] is reported as 631 nM, the Ki [3] is reported as 22.5 nM and the Ki [4] is reported as 5060 nM. For the same molecule, the Ratio (Homo sapiens [7]) was 8, the Ratio (Homo sapiens [10]) was 28 and the Ratio (Homo sapiens [9]) was 225.

`Fc1ccc(-c2cn([C@H]3CN4CCC3CC4)nn2)cc1` gave a Ki [2] of 1010 nM, a Ki [3] of 73 nM and a Ki [4] of 10400 nM. For the same molecule, the Activity [6] was “Active”, the Ratio (Homo sapiens [7]) was 10 and the Ratio (Homo sapiens [10]) was 14. The Ratio (Homo sapiens [9]) was 143 and the inhibition [12] was “Active”.

Molecule `FCCOc1cccc(-c2cn(C3CN4CCC3CC4)nn2)c1` (racemic) has a Ki [2] of 20.9 nM, a Ki [3] of 98.7 nM and a Ki [4] of 1960 nM. The Ratio (Homo sapiens [7]) was 94 and the Ratio (Homo sapiens [9]) was 20.

`c1ccc(COc2cccc(-c3cn([C@@H]4CN5CCC4CC5)nn3)c2)cc1` showed a Ki [2] of 6.67 nM, a Ki [3] of 279 nM and a Ki [4] of 414 nM. The inhibition [5] was 2 to 12%, the Ratio (Homo sapiens [7]) was 62 and the inhibition [8] was “inactive”. For the same molecule, the Ratio (Homo sapiens [9]) was 1.5.

`Fc1cccc(-c2cn(C3CN4CCC3CC4)nn2)c1` (racemic) showed a Ki [2] of 5.24 nM, a Ki [3] of 133 nM and a Ki [4] of 748 nM. For the same molecule, the Ratio (Homo sapiens [7]) was 143 and the Ratio (Homo sapiens [9]) was 5.6.

Molecule `CN1C2CCCC1CC(Nc1ccccc1Br)C2` (configuration not stated) has a Ki [13] of 221 nM and a Ki [14] of 476 nM.

`Fc1ccc(COc2cccc(-c3cn([C@@H]4CN5CCC4CC5)nn3)c2)cc1` was tested, and the Ki [2] was 7.17 nM, the Ki [3] was 149 nM and the Ki [4] was 537 nM. The inhibition [5] was 2 to 12%, the Ratio (Homo sapiens [7]) was 75 and the inhibition [8] was “Active”. The Ratio (Homo sapiens [9]) was 3.6.

`FC(F)(F)c1ccc2c(c1)[C@@H]1CNC[C@H]2C1` was tested, and the Ki [15] was over 300 nM, the Ki [16] was 21 nM and the Ki [17] was 21 nM.

Molecule `FCCOc1cccc(-c2cn([C@H]3CN4CCC3CC4)nn2)c1` has a Ki [2] of 558 nM, a Ki [3] of 38.8 nM and a Ki [4] of 7050 nM. The Ratio (Homo sapiens [7]) was 13, the Ratio (Homo sapiens [10]) was 14 and the Ratio (Homo sapiens [9]) was 182.

`Fc1ccc(COc2cccc(-c3cn(C4CN5CCC4CC5)nn3)c2)cc1` (racemic) was tested, and the Ki [2] was 13.9 nM, the Ki [3] was 127 nM and the Ki [4] was 1010 nM. The Ratio (Homo sapiens [7]) was 73 and the Ratio (Homo sapiens [9]) was 8.

Work on `FCCCOc1cccc(-c2cn(C3CN4CCC3CC4)nn2)c1` (racemic) yielded a Ki [2] of 44.4 nM, a Ki [3] of 74.6 nM and a Ki [4] of 3890 nM. It also gave a Ratio (Homo sapiens [7]) of 88 and a Ratio (Homo sapiens [9]) of 52.

`c1cc2cc(-c3ccc(O[C@H]4CN5CCC4CC5)nn3)ccc2[nH]1` [ABT-107] was tested, and the Ki [18] was 4000 nM and the Ki [19] was 0.22 nM.

With `Oc1ccc(-c2cn([C@@H]3CN4CCC3CC4)nn2)cc1` the Ki [2] was 2.48 nM, the Ki [3] was 29.3 nM and the Ki [4] was 461 nM. The Ratio (Homo sapiens [7]) was 186 and the Ratio (Homo sapiens [9]) was 16.

`c1ccc(COc2cccc(-c3cn(C4CN5CCC4CC5)nn3)c2)cc1` (racemic) gave a Ki [2] of 7.57 nM, a Ki [3] of 91.3 nM and a Ki [4] of 668 nM. It also gave a Ratio (Homo sapiens [7]) of 88 and a Ratio (Homo sapiens [9]) of 7.3.

`Fc1ccc(-c2cn(C3CN4CCC3CC4)nn2)cc1` (racemic) was tested, and the Ki [2] was 8.5 nM, the Ki [3] was 72.8 nM and the Ki [4] was 449 nM. It also gave a Ratio (Homo sapiens [7]) of 53 and a Ratio (Homo sapiens [9]) of 6.2.

In the case of `Oc1ccc(-c2cn(C3CN4CCC3CC4)nn2)cc1` (racemic), the Ki [2] is reported as 3.44 nM, the Ki [3] is reported as 9.61 nM and the Ki [4] is reported as 627 nM. For the same molecule, the Ratio (Homo sapiens [7]) was 182, the Ratio (Homo sapiens [9]) was 65 and the Ki [20] was 81 nM. It also gave a Ki [21] of over 10000 nM.

`FCCOc1cccc(-c2cn([C@@H]3CN4CCC3CC4)nn2)c1` showed a Ki [2] of 11.8 nM, a Ki [3] of 74.9 nM and a Ki [4] of 1260 nM. It also gave a Ratio (Homo sapiens [7]) of 107 and a Ratio (Homo sapiens [9]) of 17.
